Measured values taken from patent US20220273659A1, “HETEROCYCLIC COMPOUNDS AS KINASE INHIBITORS” (NUVATION BIO INC., priority 2019, published 2022).

Legend:
[1] = system: MCF-7-PR (palbociclib-resistant MCF-7) cells; experiment: Cell viability in palbociclib-resistant cell line; type: cell-based; details: Homo sapiens, MCF7; Table 5; palbociclib-resistant cell line maintained at about 850 nM palbociclib
Experimental: Cells were treated with test compounds at 7 to 9 concentrations within a desired concentration range (e.g. 1.1 nM-10 μM) on day 2 by series diluting the test compound stock solution (10 mM in DMSO) with culture medium. Treatment duration was 24 Hr for BT-549 cells and 144 Hr (with a medium change at 72 Hr) for MCF-7 and DU4475 cells. Cell viability was assessed by Cell Titer-Glo® as recommended by Promega (Cat. No.: G7572), or by resazurin assay (Sigma Aldrich, Cat. No.: R7017) post treatment.
Cell viability data were plotted using GraphPad Prism (GraphPad Software, Inc., San Diego, Calif.). In addition, a nonlinear regression model with a sigmoidal dose response and variable slope within GraphPad Prism was used to calculate the IC50 value of individual test compounds.
The effects of test compounds in a palbociclib-resistant cell line and a parental, non-resistant cell line were compared. The palbociclib-resistant cell line (“MCF-7-PR”) was derived from the parental, non-resistant cell line (MCF-7 breast adenocarcinoma cells) by culture of cells over a period of three months in increasing concentrations of palbociclib, starting from about 350 nM and ending at about 850 nM, the final concentration at which they were then maintained in culture. The MCF-7-PR cells were checked using a cell viability assay to confirm that they had at least 5-fold resistance to palbociclib compared to parental MCF-7 cells, as measured by an increase in the cell viability IC50 values. Assessment of cell viability following treatment with palbociclib or test compounds was performed according to the method described above for MCF-7 cells.

PI3Kδ kinase = target: T1, PI3Kδ kinase (Homo sapiens, UniProt O00329); experiment: PI3Kδ kinase assay (ADP-Glo, Reaction Biology); type: biochemical
T1 construct: purchased Reaction Biology Corporation (assay service)
Summary of the method: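 Kinase in Tris-HCl 40 mM pH 7.5, MgCl2 20 mM, orthovanadate 3 mM, DTT 2 mM, 0.05% CHAPS, 1% DMSO, preincubated 10 min at room temperature with compound (about 0.5 nM–100 μM). ATP started a 30-min reaction at 30 °C. ADP-Glo luminescence converted to μM ADP via standard curve; IC50 from nonlinear regression.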

CDK4 = target: T2, CDK4 (Homo sapiens, UniProt P11802); experiment: In vitro kinase inhibition IC50, luminescence (ADP Glo), retinoblastoma substrate; type: biochemical; details: read-out: CDK4/D1 IC50
T2 construct: purchased Invitrogen PR8064A
Summary of the method: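 Inhibition of CDK4 was quantified by ADP Glo luminescence with retinoblastoma as substrate. Reactions held 5 nM kinase, 1 μM retinoblastoma and 25 μM ATP and ran 2H at room temperature. A Synergy Neo reader took signals 15 min and 45 min after detection reagent, and percent inhibition was fitted to a four-parameter logistic model in XLfit to obtain IC50.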

CDK6 = target: T3, CDK6 (Homo sapiens, UniProt Q00534); experiment: as above; type: biochemical; details: read-out: CDK6/D1 IC50
T3 construct: purchased Invitrogen PR8422B
Summary of the method: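 IC50 derived by four-parameter logistic fit of percent inhibition, read as ADP-Glo luminescence. Reactions: 5 nM CDK6, 1 μM retinoblastoma, 25 μM ATP, test compound 0.1–200 nM final, 2 h at room temperature.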

FMS kinase = target: T4, FMS kinase (Homo sapiens, UniProt P07333); experiment: LanthaScreen Eu Kinase Binding Assay (ATP, fluorescent-PolyGT substrate); type: biochemical
T4 construct: purchased Invitrogen (Life Technologies)
Summary of the method: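 TR-FRET read (ex 340, em 495 and 520 nm) after EDTA/Tb-labelled antibody stop; IC50 by four-parameter logistic fit of percent inhibition. Reaction: 1.25 nM FMS, 10 min compound preincubation (3-fold series), then 1 h at room temperature with 10 μM ATP and 200 nM fluorescent PolyGT.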

T4 sequence (P07333 20-972): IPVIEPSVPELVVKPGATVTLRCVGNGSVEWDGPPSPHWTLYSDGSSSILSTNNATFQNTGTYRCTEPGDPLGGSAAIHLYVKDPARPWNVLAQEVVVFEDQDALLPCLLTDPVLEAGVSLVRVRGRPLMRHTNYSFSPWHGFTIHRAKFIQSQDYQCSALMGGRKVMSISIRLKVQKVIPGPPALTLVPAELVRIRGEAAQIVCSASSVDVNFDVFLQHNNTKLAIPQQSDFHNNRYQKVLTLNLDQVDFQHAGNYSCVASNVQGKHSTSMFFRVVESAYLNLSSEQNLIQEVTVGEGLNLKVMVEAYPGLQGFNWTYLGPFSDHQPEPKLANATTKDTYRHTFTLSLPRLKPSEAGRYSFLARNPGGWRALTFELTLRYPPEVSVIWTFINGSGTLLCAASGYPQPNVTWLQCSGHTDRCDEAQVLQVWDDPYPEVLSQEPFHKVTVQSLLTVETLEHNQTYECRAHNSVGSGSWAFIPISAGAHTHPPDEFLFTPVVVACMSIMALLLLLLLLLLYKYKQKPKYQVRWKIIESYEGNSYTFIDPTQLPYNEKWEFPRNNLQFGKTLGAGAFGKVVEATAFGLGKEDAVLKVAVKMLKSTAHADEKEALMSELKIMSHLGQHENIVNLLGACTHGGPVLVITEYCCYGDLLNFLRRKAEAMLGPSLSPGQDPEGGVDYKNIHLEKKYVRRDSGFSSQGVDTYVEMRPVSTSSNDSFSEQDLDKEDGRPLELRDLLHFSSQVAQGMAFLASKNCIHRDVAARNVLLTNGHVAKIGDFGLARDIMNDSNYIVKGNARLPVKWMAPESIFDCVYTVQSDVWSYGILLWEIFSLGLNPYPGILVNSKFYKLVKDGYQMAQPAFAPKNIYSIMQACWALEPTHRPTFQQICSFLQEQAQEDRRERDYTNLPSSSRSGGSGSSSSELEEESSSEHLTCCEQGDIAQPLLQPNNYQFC
T3 sequence (Q00534 whole entry): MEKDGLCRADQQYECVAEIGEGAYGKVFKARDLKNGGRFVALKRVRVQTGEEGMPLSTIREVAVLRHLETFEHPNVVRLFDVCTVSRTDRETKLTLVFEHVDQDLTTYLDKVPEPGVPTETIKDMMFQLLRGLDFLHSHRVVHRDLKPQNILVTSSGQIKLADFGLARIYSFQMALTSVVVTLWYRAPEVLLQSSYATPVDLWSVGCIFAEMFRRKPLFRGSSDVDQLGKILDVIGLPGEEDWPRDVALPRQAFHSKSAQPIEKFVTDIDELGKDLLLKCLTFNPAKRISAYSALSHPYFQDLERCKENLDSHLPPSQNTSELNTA
T3 sequence (P24385 whole entry partner): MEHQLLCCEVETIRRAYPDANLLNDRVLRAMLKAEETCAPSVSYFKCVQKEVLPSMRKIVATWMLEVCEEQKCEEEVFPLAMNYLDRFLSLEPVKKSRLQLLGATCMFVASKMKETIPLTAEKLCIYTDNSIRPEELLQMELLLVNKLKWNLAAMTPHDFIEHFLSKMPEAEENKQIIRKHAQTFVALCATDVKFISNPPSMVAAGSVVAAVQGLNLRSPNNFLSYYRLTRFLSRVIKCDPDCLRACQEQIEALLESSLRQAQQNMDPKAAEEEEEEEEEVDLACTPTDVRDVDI
T1 sequence (O00329 whole entry): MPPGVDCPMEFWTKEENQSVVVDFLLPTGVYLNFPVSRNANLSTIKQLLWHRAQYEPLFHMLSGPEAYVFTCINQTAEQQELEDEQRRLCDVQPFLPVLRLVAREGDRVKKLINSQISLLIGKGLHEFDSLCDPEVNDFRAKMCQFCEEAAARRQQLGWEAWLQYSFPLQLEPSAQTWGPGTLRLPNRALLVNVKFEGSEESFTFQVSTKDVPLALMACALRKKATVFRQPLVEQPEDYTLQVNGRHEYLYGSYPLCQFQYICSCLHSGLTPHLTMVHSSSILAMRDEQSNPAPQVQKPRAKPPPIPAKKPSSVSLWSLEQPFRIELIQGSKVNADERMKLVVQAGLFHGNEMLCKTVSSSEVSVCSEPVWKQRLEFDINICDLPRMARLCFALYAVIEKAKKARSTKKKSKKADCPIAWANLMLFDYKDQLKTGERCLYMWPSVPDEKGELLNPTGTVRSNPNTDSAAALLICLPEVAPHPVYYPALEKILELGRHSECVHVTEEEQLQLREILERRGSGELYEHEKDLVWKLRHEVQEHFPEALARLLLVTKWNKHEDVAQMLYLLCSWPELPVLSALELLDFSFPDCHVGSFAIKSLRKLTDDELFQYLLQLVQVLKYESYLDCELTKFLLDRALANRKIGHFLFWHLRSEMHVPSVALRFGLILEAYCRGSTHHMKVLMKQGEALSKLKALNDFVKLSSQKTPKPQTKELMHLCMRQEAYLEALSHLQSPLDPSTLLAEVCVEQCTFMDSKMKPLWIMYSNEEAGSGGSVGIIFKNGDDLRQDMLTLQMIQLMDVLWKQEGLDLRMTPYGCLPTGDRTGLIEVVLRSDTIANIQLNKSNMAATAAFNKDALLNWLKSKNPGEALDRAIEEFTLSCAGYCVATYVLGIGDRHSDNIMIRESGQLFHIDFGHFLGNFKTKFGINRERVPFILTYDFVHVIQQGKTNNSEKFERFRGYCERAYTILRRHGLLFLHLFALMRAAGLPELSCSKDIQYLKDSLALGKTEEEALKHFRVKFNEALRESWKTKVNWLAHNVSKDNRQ
T1 sequence (P27986 whole entry partner): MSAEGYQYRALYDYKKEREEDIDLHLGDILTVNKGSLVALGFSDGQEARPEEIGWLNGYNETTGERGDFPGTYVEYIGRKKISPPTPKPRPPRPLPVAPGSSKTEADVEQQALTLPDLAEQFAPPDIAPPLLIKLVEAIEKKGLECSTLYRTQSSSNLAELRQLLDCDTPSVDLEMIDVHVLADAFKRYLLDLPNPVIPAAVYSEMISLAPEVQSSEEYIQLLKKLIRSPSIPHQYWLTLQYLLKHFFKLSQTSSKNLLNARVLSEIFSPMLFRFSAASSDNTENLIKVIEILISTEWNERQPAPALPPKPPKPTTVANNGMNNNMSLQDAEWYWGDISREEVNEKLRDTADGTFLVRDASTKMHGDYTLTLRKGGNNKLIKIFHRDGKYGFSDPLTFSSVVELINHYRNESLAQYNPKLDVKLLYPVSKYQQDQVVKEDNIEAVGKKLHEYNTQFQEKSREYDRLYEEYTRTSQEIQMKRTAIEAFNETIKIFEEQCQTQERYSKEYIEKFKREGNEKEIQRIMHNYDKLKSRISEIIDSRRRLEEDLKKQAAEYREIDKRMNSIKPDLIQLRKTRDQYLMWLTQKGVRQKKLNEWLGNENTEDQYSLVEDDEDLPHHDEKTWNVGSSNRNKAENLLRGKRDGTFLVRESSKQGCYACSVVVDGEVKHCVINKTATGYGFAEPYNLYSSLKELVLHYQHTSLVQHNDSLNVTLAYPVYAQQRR
T2 sequence (P11802 whole entry): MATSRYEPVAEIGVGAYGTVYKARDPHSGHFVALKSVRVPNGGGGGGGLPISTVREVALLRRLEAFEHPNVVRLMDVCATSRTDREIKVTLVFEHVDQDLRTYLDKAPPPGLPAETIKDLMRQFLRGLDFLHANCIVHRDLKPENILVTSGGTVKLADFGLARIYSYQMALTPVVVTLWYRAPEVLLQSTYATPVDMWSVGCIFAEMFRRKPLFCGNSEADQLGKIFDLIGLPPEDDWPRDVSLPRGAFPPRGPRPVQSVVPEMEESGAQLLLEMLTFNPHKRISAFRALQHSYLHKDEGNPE
T2 sequence (P24385 whole entry partner): as the sequence (P24385 whole entry partner) above

Row | SMILES | IC50 [1] [nM] | IC50 (PI3Kδ kinase) [nM] | IC50 (CDK4) [nM] | IC50 (CDK6) [nM] | IC50 (FMS kinase) [nM]
1 | N#Cc1cc2cnc(Nc3ccc4c(c3)CCNC4)nc2n(C2CCCC2)c1=O [Compound No. 31, 8-cyclopentyl-7-oxo-2-((1,2,3,4-tetrahydroisoquinolin-6-yl)amino)-7,8-dihydropyrido[2,3-d]pyrimidine-6-carbonitrile] | 248 | 128 | 5 | 9 | 1
2 | N#Cc1cc2cnc(Nc3ccc(N4CCNCC4)c(F)c3)nc2n(C2CCCC2)c1=O [Compound No. 13, 8-cyclopentyl-2-((3-fluoro-4-(piperazin-1-yl)phenyl)amino)-7-oxo-7,8-dihydropyrido[2,3-d]pyrimidine-6-carbonitrile] | 481 | 561 | 3.5 | 1.5 | < 1
3 | N#Cc1cc2cnc(Nc3ccc4c(c3)CNCC4)nc2n(C2CCCC2)c1=O [Compound No. 29, 8-cyclopentyl-7-oxo-2-((1,2,3,4-tetrahydroisoquinolin-7-yl)amino)-7,8-dihydropyrido[2,3-d]pyrimidine-6-carbonitrile] | – | 552 | 7 | 13 | 2.5
4 | CS(=O)(=O)N1CCC(Nc2ncc3cc(C#N)c(=O)n(C4CCCC4)c3n2)CC1 [Compound No. 93, 8-cyclopentyl-2-((1-(methylsulfonyl)piperidin-4-yl)amino)-7-oxo-7,8-dihydropyrido[2,3-d]pyrimidine-6-carbonitrile] | 911 | 12100 | 2.6 | 4 | –

Continued, values first:

Row | IC50 [1] [nM] | IC50 (PI3Kδ kinase) [nM] | IC50 (CDK4) [nM] | IC50 (CDK6) [nM] | IC50 (FMS kinase) [nM] | SMILES
5 | 361 | 421 | 10 | 22 | < 1 | N#Cc1cc2cnc(Nc3ccc4c(c3)CCNC4)nc2n(C2CC3CC3C2)c1=O (stereo not drawn) [Compound No. 342, 8-(bicyclo[3.1.0]hexan-3-yl)-7-oxo-2-((1,2,3,4-tetrahydroisoquinolin-6-yl)amino)-7,8-dihydropyrido[2,3-d]pyrimidine-6-carbonitrile]
6 | 6230 | > 50000 | 40 | 55 | 674 | CS(=O)(=O)N1CCC(Nc2ncc3cc(C#N)c(=O)n(C4CCC(F)(F)C4)c3n2)CC1 (racemic) [Compound No. 345, 8-(3,3-difluorocyclopentyl)-2-((1-(methylsulfonyl)piperidin-4-yl)amino)-7-oxo-7,8-dihydropyrido[2,3-d]pyrimidine-6-carbonitrile]
7 | 690 | > 50000 | 3.5 | 8.5 | 166 | CS(=O)(=O)N1CCC(Nc2ncc3cc(C#N)c(=O)n(C4CC5CC5C4)c3n2)CC1 (stereo not drawn) [Compound No. 341, 8-(bicyclo[3.1.0]hexan-3-yl)-2-((1-(methylsulfonyl)piperidin-4-yl)amino)-7-oxo-7,8-dihydropyrido[2,3-d]pyrimidine-6-carbonitrile]
